Test results as given in patent US20170020909A1, “METHODS OF TREATING GLAUCOMA USING AMP-ACTIVATED PROTEIN KINASE (AMPK) ACTIVATORS” (Massachusetts Eye and Ear Infirmary, priority 2014, published 2017).

Test system: RhoA
Experiment: Immunoblot of p-RhoA (Ser188)/total RhoA in human TM cell lysates
Format: cell-based
Settings: 0.5 mM AICAR
Description: Primary human trabecular meshwork (TM) cells were isolated, in accordance with the Declaration of Helsinki, and maintained in culture as described previously.^63 Independent primary human TM cell lines were generated from donors ranging in age from 35 to 72 years and no known history of ocular disease. Cell cultures were maintained, unless otherwise stated, in Dulbecco's modified eagle medium (Life Technologies, Grand Island, N.Y.) containing 20% fetal bovine serum, 1% L-glutamine (2 mM), and gentamicin (0.1 mg/ml) at 37° C. in a 10% CO2 atmosphere. Only TM cells from third through fifth passage were used. […]
At the conclusion of each experiment for matricellular and ECM protein detection, conditioned media (CM) from TM cell cultures was harvested and centrifuged at 5000 rpm for 10 minutes at 4° C. The supernatant was then concentrated (Amicon Ultra-4 Filter Unit, 10 kDa; Millipore, Milford, Mass.), and protein content quantified using the DC Protein Assay kit adhering to manufacturer's protocols (Bio-Rad, Hercules, Calif.). […] Samples were then centrifuged at 14,000 rpm for 15 minutes at 4° C. and protein content quantified. […] The membranes were then washed three times with 1×TBS-T, scanned, and integrated band intensities were calculated using an infrared imaging system (Odyssey; Li-Cor, Lincoln, Nebr.). […]

NC(=O)c1ncn([C@@H]2O[C@H](CO)[C@@H](O)[C@H]2O)c1N [AICAR, 5-Aminoimidazole-4-carboxamide riboside]
duration of the phospho-total RhoA ratio increase (through 24 hours): remained statistically significant through 24 hours | increase of phospho-total RhoA ratio (Ser188) (within one hour, human TM cells): approximately 10 fold
